Results published in paper PMC3836680 (Amino acids, 2011).

Molecular target: S. pyogenes P5C reductase (Streptococcus pyogenes, UniProt Q9A1S9)
Assay: P5C reductase inhibition assay
Format: biochemical
Conditions: read-out: Enzyme inhibition at 0.2 mM

NC(P(=O)(O)O)P(=O)(O)O [Compound 01, aminomethylenebisphosphonic acid]
inhibition at 200 µM: 3 ± 2.1%
